{"source": "patent US11369666B2", "about": "“Treatment of diseases involving mucin” (NewSouth Innovations Pty Limited, priority 2012, dated 2022)", "key": {"[1]": {"system": "MUC 1 cell lines", "experiment": "Br and NAC with chemotherapy drugs in MUC 1 cell lines (FIG. 11, 12)", "type": "cell-based", "conditions": "low doses of Cisplatin, FIG. 11 and 12", "description": "The combination of Br and NAC with chemotherapy drugs in MUC 1 cell lines was investigated (see FIGS. 11 and 12)."}, "[2]": {"system": "human PMP mucin", "experiment": "Time course for dissolution of human PMP mucin in the laboratory (FIG. 1)", "type": "biochemical", "conditions": "FIG. 1, agent alone"}, "[3]": {"system": "variant of HT29 (5M21)", "experiment": "Effect of Br and NAC combination on chemotherapy (FIG. 8)", "type": "cell-based", "description": "Chemo resistance of mucin secreting cancers is common. The experiments in FIG. 8 again relate to a variant of HT29 (5M21). A combination of Br and NAC was effective, whereas the individual agents were not effective."}, "[4]": {"system": "PMP tumor/mucin", "experiment": "Breakdown of PMP tumor/mucin specimens from 31 patients in the laboratory", "type": "biochemical, human", "conditions": "for Residual mucin weight post treatment: 300 μg/ml Br, 5% NAC or both", "description": "Specimens of tumor/mucin were taken from the abdomen and then subjected to treatment in the laboratory with 300 μg/ml Br, 5% NAC, or a mixture of both, for 3 hours at 37° C. The weight of mucin tumor was measured before and after treatment."}, "[5]": {"system": "mesothelioma cell lines PET and YOU (MUC1)", "experiment": "Growth inhibition of MUC1 mesothelioma cell lines (FIG. 9, 10)", "type": "cell-based", "description": "The two mesothelioma cell lines PET and YOU (both of which have MUC1) were investigated. These cell lines are different from cancer cells which secrete mucin externally or that have mucin internally in the cell (signet cell)."}, "[6]": {"system": "MKN 45 human gastric mucin secreting cancer cell line", "experiment": "In vitro growth, SRB assay, 72 hour culture (FIG. 7a)", "type": "cell-based", "conditions": "MKN 45, SRB assay, agents individually", "description": "MKN 45 is a human gastric mucin secreting cancer cell line. The effect of NAC, Br and the combination on in vitro growth (SRB assay, 72 hour culture) was studied."}}, "note": "Values joined by “and” are separate entries in the source; they are usually repeats but may differ in a detail not shown here. Equal values may be shown once."}
{"compound": "N.N.[Cl][Pt][Cl]", "note": "[Cisplatin, cisplatin]", "values": [{"measurement": "efficacy in MUC 1 cell lines", "setting": "[1]", "value": "ineffective"}]}
{"compound": "CC(=O)N[C@@H](CS)C(=O)O", "note": "[NAC, N-acetyl cysteine]", "values": [{"measurement": "effect on dissolution of human PMP mucin", "setting": "[2]", "value": "no effect"}, {"measurement": "efficacy against 5M21", "setting": "[3]", "value": "not effective"}, {"measurement": "effect of treatment on PMP tumor (Table 1)", "setting": "[4]; agent alone, 31 patients", "value": "ineffective"}, {"measurement": "reduction of weight of mucin tumor", "setting": "[4]; in every case, agent on its own, 300 μg/ml Br or 5% NAC, 3 hours at 37° C.", "value": "no (or a very modest) reduction of weight"}, {"measurement": "Residual mucin weight post treatment", "setting": "[4]; patient P1, mucin type soft, 3 hours at 37° C.", "value": "1.90 g and 1.67 g"}, {"measurement": "Residual mucin weight post treatment", "setting": "[4]; patient P2, mucin type soft, 3 hours at 37° C.", "value": "1.39 g and 1.53 g"}, {"measurement": "Residual mucin weight post treatment", "setting": "[4]; patient P3, mucin type soft, 3 hours at 37° C.", "value": "1.80 g and 1.83 g"}, {"measurement": "Residual mucin weight post treatment", "setting": "[4]; patient P4, mucin type Semi solid, 3 hours at 37° C.", "value": "1.28 g and 1.53 g"}, {"measurement": "Residual mucin weight post treatment", "setting": "[4]; patient P5, mucin type Hard, 3 hours at 37° C.", "value": "1.69 g and 1.79 g"}, {"measurement": "Residual mucin weight post treatment", "setting": "[4]; patient P6, mucin type soft, 3 hours at 37° C.", "value": "2.13 g and 2.08 g"}, {"measurement": "Residual mucin weight post treatment", "setting": "[4]; patient P7, mucin type soft, 3 hours at 37° C.", "value": "2.13 g and 2.08 g"}, {"measurement": "Residual mucin weight post treatment", "setting": "[4]; patient P8, mucin type soft, 3 hours at 37° C.", "value": "0.95 g and 1.61 g"}, {"measurement": "Residual mucin weight post treatment", "setting": "[4]; patient P9, mucin type Signet ring carcinoma, 3 hours at 37° C.", "value": "1.42 g and 1.56 g"}, {"measurement": "Residual mucin weight post treatment", "setting": "[4]; patient P10, mucin type Hard, 3 hours at 37° C.", "value": "1.82 g and 1.73 g"}, {"measurement": "Residual mucin weight post treatment", "setting": "[4]; patient P12, mucin type Semi Hard, 3 hours at 37° C.", "value": "1.81 g and 1.94 g"}, {"measurement": "Residual mucin weight post treatment", "setting": "[4]; patient P13, mucin type Hard, 3 hours at 37° C.", "value": "1.73 g and 1.43 g"}, {"measurement": "Residual mucin weight post treatment", "setting": "[4]; patient P14, mucin type soft, 3 hours at 37° C.", "value": "1.60 g and 1.57 g"}, {"measurement": "Residual mucin weight post treatment", "setting": "[4]; patient P15, mucin type soft, 3 hours at 37° C.", "value": "1.36 g and 1.37 g"}, {"measurement": "Residual mucin weight post treatment", "setting": "[4]; patient P16, mucin type soft, 3 hours at 37° C.", "value": "1.69 g and 1.62 g"}, {"measurement": "Residual mucin weight post treatment", "setting": "[4]; patient P17, Scraped mucin from mucoid tissues, 3 hours at 37° C.", "value": 2.64, "unit": "g"}, {"measurement": "Residual mucin weight post treatment", "setting": "[4]; patient P18, mucin type soft, 3 hours at 37° C.", "value": "2.31 g and 2.24 g"}, {"measurement": "Residual mucin weight post treatment", "setting": "[4]; patient P19, Semi soft Mucin deposits on tissue, 3 hours at 37° C.", "value": "1.79 g and 1.89 g"}, {"measurement": "Residual mucin weight post treatment", "setting": "[4]; patient P20, mucin type soft, 3 hours at 37° C.", "value": "2.34 g and 2.36 g"}, {"measurement": "Residual mucin weight post treatment", "setting": "[4]; patient P21, mucin type soft, 3 hours at 37° C.", "value": "2.38 g and 1.74 g"}, {"measurement": "Residual mucin weight post treatment", "setting": "[4]; patient P22, Adeno-carcinoma, 3 hours at 37° C.", "value": "1.74 g and 1.64 g"}, {"measurement": "Residual mucin weight post treatment", "setting": "[4]; patient P23, mucin type Semi solid, 3 hours at 37° C.", "value": 1.76, "unit": "g"}, {"measurement": "Residual mucin weight post treatment", "setting": "[4]; patient P24, Mucin deposits on tissue, 3 hours at 37° C.", "value": "1.64 g and 1.46 g"}, {"measurement": "Residual mucin weight post treatment", "setting": "[4]; patient P25, mucin type Hard, 3 hours at 37° C.", "value": "1.49 g and 1.37 g"}, {"measurement": "Residual mucin weight post treatment", "setting": "[4]; patient P26, mucin type Hard, 3 hours at 37° C.", "value": "1.23 g and 1.26 g"}, {"measurement": "Residual mucin weight post treatment", "setting": "[4]; patient P27, mucin type soft, 3 hours at 37° C.", "value": "1.92 g and 2.03 g"}, {"measurement": "Residual mucin weight post treatment", "setting": "[4]; patient P28, mucin type soft, 3 hours at 37° C.", "value": 1.48, "unit": "g"}, {"measurement": "Residual mucin weight post treatment", "setting": "[4]; patient P29, mucin type soft, 3 hours at 37° C.", "value": 1.21, "unit": "g"}, {"measurement": "Residual mucin weight post treatment", "setting": "[4]; patient P30, mucin type soft, 3 hours at 37° C.", "value": "1.26 g and 1.16 g"}, {"measurement": "Residual mucin weight post treatment", "setting": "[4]; patient P31, mucin type Hard, 3 hours at 37° C.", "value": "1.56 g and 1.84 g"}, {"measurement": "growth inhibition of PET and YOU", "setting": "[5]; 50 mM NAC alone", "value": "ineffective"}, {"measurement": "growth inhibition of PET and YOU", "setting": "[5]; FIG. 9 and 10", "value": "no action"}, {"measurement": "effect on in vitro growth", "setting": "[6]", "value": "no or little effect"}]}
